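Exposure lasted 48 hours, with cells grown in 96-well plates and compounds tested at five concentrations. The concentration for 50% growth inhibition is given as GI50.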 The source made the active and inactive calls. Cut-off read from the data, not from the text of the source: active = GI50 up to about 1.1 µM and inactive = higher.
Legend:
Assay in all cases: inhibition of tumour cell growth, NCI panel, 48 h
[1] = test system: XF498
[2] = test system: HCC 2998
[3] = test system: OVCAR-4
[4] = test system: M14
[5] = test system: SK-MEL-28
[6] = test system: TK-10
[7] = test system: DLD-1
[8] = test system: HOP-62
[9] = test system: EKVX
[10] = test system: IGROV-1
[11] = test system: OVCAR-5
[12] = test system: SK-MEL-5
[13] = test system: K562
[14] = test system: SK-MEL-2
[15] = test system: SNB-78
[16] = test system: RPMI-8226
[17] = test system: SNB-19
[18] = test system: HL-60
[19] = test system: NCI-H522
[20] = test system: HOP-92
[21] = test system: KM12
[22] = test system: DMS-273
[23] = test system: COLO 205
[24] = test system: SW-620
[25] = test system: HCT-116
[26] = test system: KM-20L2
[27] = test system: UACC-62
[28] = test system: M19-MEL
[29] = test system: SN12C
[30] = test system: SF-539
[31] = test system: UACC-257
[32] = test system: SF-268
[33] = test system: ACHN
[34] = test system: HOP-18
[35] = test system: DMS-114
[36] = test system: OVCAR-8
[37] = test system: U-251
[38] = test system: SNB-75
[39] = test system: SR
[40] = test system: OVCAR-3
[41] = test system: UO-31
[42] = test system: Malme-3M
[43] = test system: SF-295
[44] = test system: NCI-H23
[45] = test system: NCI-H460
[46] = test system: NCI-H226
[47] = test system: MOLT-4
[48] = test system: CAKI-1
[49] = test system: A549
[50] = test system: CCRF-CEM
[51] = test system: A498
[52] = test system: HCT-15
[53] = test system: LXFL 529
[54] = test system: HT-29
[55] = test system: SK-OV-3
[56] = test system: 786-0
[57] = test system: LOX IMVI

In the case of `CCOC(=O)C(=O)Nc1cccc(C)c1C`, the GI50 [1] is reported as > 100 µM (inactive), the GI50 [2] is reported as > 100 µM (inactive) and the GI50 [3] is reported as > 100 µM (inactive). For the same molecule, the GI50 [4] was > 100 µM (inactive), the GI50 [5] was > 100 µM (inactive) and the GI50 [6] was > 100 µM (inactive). For the same molecule, the GI50 [7] was > 100 µM (inactive), the GI50 [8] was > 100 µM (inactive) and the GI50 [9] was > 100 µM (inactive). The GI50 [10] was > 100 µM (inactive), the GI50 [11] was > 100 µM (inactive) and the GI50 [12] was > 100 µM (inactive). The GI50 [13] was > 100 µM (inactive), the GI50 [14] was > 100 µM (inactive) and the GI50 [15] was > 100 µM (inactive). For the same molecule, the GI50 [16] was > 100 µM (inactive), the GI50 [17] was > 100 µM (inactive) and the GI50 [18] was > 100 µM (inactive). The GI50 [19] was > 100 µM (inactive), the GI50 [20] was > 100 µM (inactive) and the GI50 [21] was > 100 µM (inactive). The GI50 [22] was > 100 µM (inactive), the GI50 [23] was > 100 µM (inactive) and the GI50 [24] was > 100 µM (inactive). The GI50 [25] was > 100 µM (inactive), the GI50 [26] was > 100 µM (inactive) and the GI50 [27] was > 100 µM (inactive). The GI50 [28] was > 100 µM (inactive), the GI50 [29] was > 100 µM (inactive) and the GI50 [30] was > 100 µM (inactive). The GI50 [31] was > 100 µM (inactive), the GI50 [32] was > 100 µM (inactive) and the GI50 [33] was > 100 µM (inactive). For the same molecule, the GI50 [34] was > 100 µM (inactive), the GI50 [35] was > 100 µM (inactive) and the GI50 [36] was > 100 µM (inactive). The GI50 [37] was > 100 µM (inactive), the GI50 [38] was > 100 µM (inactive) and the GI50 [39] was > 100 µM (inactive). The GI50 [40] was > 100 µM (inactive), the GI50 [41] was > 100 µM (inactive) and the GI50 [42] was > 100 µM (inactive). For the same molecule, the GI50 [43] was > 100 µM (inactive), the GI50 [44] was > 100 µM (inactive) and the GI50 [45] was > 100 µM (inactive). For the same molecule, the GI50 [46] was > 100 µM (inactive), the GI50 [47] was > 100 µM (inactive) and the GI50 [48] was > 100 µM (inactive). For the same molecule, the GI50 [49] was > 100 µM (inactive), the GI50 [50] was > 100 µM (inactive) and the GI50 [51] was > 100 µM (inactive). The GI50 [52] was > 100 µM, the GI50 [53] was > 100 µM (inactive) and the GI50 [54] was > 100 µM (inactive). The GI50 [55] was > 100 µM (inactive).

`CCOc1cc2ccc3c4cc(OC)c(OC)cc4cnc3c2cc1OCC` was tested, and the GI50 [1] was > 100 µM (inactive), the GI50 [2] was > 100 µM (inactive) and the GI50 [3] was > 100 µM (inactive). The GI50 [4] was > 100 µM (inactive), the GI50 [5] was > 100 µM (inactive) and the GI50 [6] was > 100 µM (inactive). The GI50 [7] was > 100 µM (inactive), the GI50 [8] was > 100 µM (inactive) and the GI50 [9] was > 100 µM (inactive). The GI50 [10] was > 100 µM (inactive), the GI50 [11] was > 100 µM (inactive) and the GI50 [12] was > 100 µM (inactive). For the same molecule, the GI50 [13] was > 100 µM (inactive), the GI50 [14] was > 100 µM (inactive) and the GI50 [15] was > 100 µM (inactive). The GI50 [16] was > 100 µM (inactive), the GI50 [17] was > 100 µM (inactive) and the GI50 [19] was > 100 µM (inactive). For the same molecule, the GI50 [21] was > 100 µM (inactive), the GI50 [23] was > 100 µM (inactive) and the GI50 [24] was > 100 µM (inactive). For the same molecule, the GI50 [25] was > 100 µM (inactive), the GI50 [26] was > 100 µM (inactive) and the GI50 [27] was > 100 µM (inactive). For the same molecule, the GI50 [28] was > 100 µM (inactive), the GI50 [29] was > 100 µM (inactive) and the GI50 [30] was > 100 µM (inactive). The GI50 [31] was > 100 µM (inactive), the GI50 [32] was > 100 µM (inactive) and the GI50 [33] was > 100 µM (inactive). For the same molecule, the GI50 [34] was > 100 µM (inactive), the GI50 [35] was > 100 µM (inactive) and the GI50 [36] was > 100 µM (inactive). The GI50 [37] was > 100 µM (inactive), the GI50 [38] was > 100 µM (inactive) and the GI50 [40] was > 100 µM (inactive). For the same molecule, the GI50 [41] was > 100 µM (inactive), the GI50 [42] was > 100 µM (inactive) and the GI50 [43] was > 100 µM (inactive). For the same molecule, the GI50 [44] was > 100 µM (inactive), the GI50 [45] was > 100 µM (inactive) and the GI50 [47] was > 100 µM (inactive). The GI50 [48] was > 100 µM (inactive), the GI50 [49] was > 100 µM (inactive) and the GI50 [56] was > 100 µM (inactive). The GI50 [50] was > 100 µM (inactive), the GI50 [51] was > 100 µM (inactive) and the GI50 [52] was > 100 µM. For the same molecule, the GI50 [53] was > 100 µM (inactive), the GI50 [54] was > 100 µM (inactive) and the GI50 [55] was > 100 µM (inactive).

With `CCCCC(N)CSSCC(N)CCCC` (centres undefined) the GI50 [1] was 20.3 µM (inactive), the GI50 [2] was 19 µM (inactive) and the GI50 [3] was 18.2 µM (inactive). For the same molecule, the GI50 [4] was 17.9 µM (inactive), the GI50 [5] was 17.7 µM (inactive) and the GI50 [6] was > 100 µM (inactive). The GI50 [7] was 21.6 µM (inactive), the GI50 [8] was 27.3 µM (inactive) and the GI50 [9] was 25.2 µM (inactive). For the same molecule, the GI50 [10] was 50.8 µM (inactive), the GI50 [11] was 20.5 µM (inactive) and the GI50 [12] was 22.9 µM (inactive). The GI50 [13] was 19.4 µM (inactive), the GI50 [14] was 17.2 µM (inactive) and the GI50 [15] was 32.7 µM (inactive). The GI50 [16] was 25.1 µM (inactive), the GI50 [17] was 58.5 µM (inactive) and the GI50 [18] was 16.4 µM (inactive). For the same molecule, the GI50 [19] was 15 µM (inactive), the GI50 [57] was 17.6 µM (inactive) and the GI50 [21] was 49.2 µM (inactive). The GI50 [22] was 23.4 µM (inactive), the GI50 [23] was 52.7 µM (inactive) and the GI50 [24] was 23.2 µM (inactive). For the same molecule, the GI50 [25] was 17.8 µM (inactive), the GI50 [27] was 21.1 µM (inactive) and the GI50 [28] was 26.2 µM (inactive). The GI50 [29] was 19.5 µM (inactive), the GI50 [30] was 23.7 µM (inactive) and the GI50 [31] was 20.5 µM (inactive). The GI50 [32] was 26.9 µM (inactive), the GI50 [33] was 34.4 µM (inactive) and the GI50 [34] was > 100 µM (inactive). The GI50 [35] was 17.7 µM (inactive), the GI50 [36] was 37.8 µM (inactive) and the GI50 [38] was 30.6 µM (inactive). The GI50 [39] was 17.5 µM (inactive), the GI50 [40] was 20.8 µM (inactive) and the GI50 [41] was 21.4 µM (inactive). For the same molecule, the GI50 [42] was 18.1 µM (inactive), the GI50 [43] was 33.3 µM (inactive) and the GI50 [44] was 24.8 µM (inactive). For the same molecule, the GI50 [45] was 36.7 µM (inactive), the GI50 [46] was 23.5 µM (inactive) and the GI50 [47] was 19.2 µM (inactive). For the same molecule, the GI50 [49] was 52 µM (inactive), the GI50 [56] was 17.9 µM (inactive) and the GI50 [50] was 20.3 µM (inactive). The GI50 [51] was 25.8 µM (inactive), the GI50 [52] was 26.2 µM and the GI50 [53] was 16.8 µM (inactive). For the same molecule, the GI50 [54] was 23.7 µM (inactive) and the GI50 [55] was 57.1 µM (inactive).

From ChEMBL document CHEMBL1201862, “PubChem BioAssay data set” (2004)
